In ChEMBL document CHEMBL3046933, “Synthesis and evaluation of a series of aminocyanopyridines as antimicrobial agents” (2011):
In brackets after ≈: the same amount, converted by molar mass.

What was measured:
Assay type in all cases: functional
Micrococcus luteus [1] = assay: Antibacterial activity against Micrococcus luteus NRRLB 4375 by macrobroth dilution method
Pseudomonas aeruginosa [2] = assay: Antibacterial activity against Pseudomonas aeruginosa […] by macrobroth dilution method
Bacillus subtilis [3] = assay: Antibacterial activity against Bacillus subtilis RSKK 244 by macrobroth dilution method
Bacillus subtilis [4] = assay: Antibacterial activity against Bacillus subtilis RSKK 244 at 100 ug/ml after 24 hr by disk diffusion method; details: RSKK 244, 24 h, read-out: DIZ
Pseudomonas aeruginosa [5] = assay: Antibacterial activity against Pseudomonas aeruginosa […] at 100 ug/ml after 24 hr by disk diffusion method; details: read-out: DIZ
Micrococcus luteus [6] = assay: Antibacterial activity against Micrococcus luteus NRRLB 4375 at 100 ug/ml after 24 hr by disk diffusion method; details: NRRLB 4375, 24 h, read-out: DIZ
Candida albicans = assay: Antifungal activity against Candida albicans ATCC 90028 at 100 ug/ml by disk diffusion method; details: read-out: DIZ
Priestia megaterium = assay: Antibacterial activity against Bacillus megaterium clinical isolate at 100 ug/ml after 24 hr by disk diffusion method; details: read-out: DIZ

Row | SMILES | MIC (Micrococcus luteus [1]) [µg/mL] | MIC (Pseudomonas aeruginosa [2]) [µg/mL] | MIC (Bacillus subtilis [3]) [µg/mL] | zone of inhibition at 100 µg/mL (Bacillus subtilis [4]) [mm] | zone of inhibition at 100 µg/mL (Pseudomonas aeruginosa [5]) [mm] | zone of inhibition at 100 µg/mL (Micrococcus luteus [6]) [mm] | zone of inhibition at 100 µg/mL (Candida albicans) [mm] | zone of inhibition at 100 µg/mL (Priestia megaterium) [mm]
1 | Cc1ccc(-c2c(C#N)c(N)nc3c2CCC3)o1 | 25 (≈ 104 µM) | 12.5 (≈ 52.2 µM) | 12.5 (≈ 52.2 µM) | 22.5 | 17 | 15 | – | –
2 | OC(Cn1cncn1)(Cn1cncn1)c1ccc(F)cc1F [FLUCONAZOLE] | 8 (≈ 26.1 µM) | – | – | – | – | – | – | –
3 | Cc1ccc(-c2c(C#N)c(N)nc3c2CCCC3)o1 | 37.5 (≈ 148 µM) | – | – | – | – | 11 | – | –
4 | Cc1ccc(-c2c(C#N)c(N)nc3c2CCCCC3)o1 | 25 (≈ 93.5 µM) | 25 (≈ 93.5 µM) | – | – | 14 | 9 | – | –
5 | Cc1ccc(-c2c(C#N)c(N)nc3c2CCC3)s1 | 37.5 (≈ 147 µM) | 25 (≈ 97.9 µM) | 25 (≈ 97.9 µM) | 15 | 15 | 12 | – | –
6 | Cc1ccsc1-c1c(C#N)c(N)nc2c1CCCCC2 | – | 12.5 (≈ 44.1 µM) | 37.5 (≈ 132 µM) | 10 | 17 | – | – | –
7 | CN(C)[C@@H]1C(O)=C(C(N)=O)C(=O)[C@@]2(O)C(O)=C3C(=O)c4c(O)cccc4[C@@](C)(O)[C@H]3C[C@@H]12 [TETRACYCLINE] | – | – | – | – | – | 28 | – | –
8 | Cc1ccsc1-c1c(C#N)c(N)nc2c1CCCC2 | 37.5 (≈ 139 µM) | 25 (≈ 92.8 µM) | – | – | 9 | 9 | – | –
9 | CC1(C)S[C@@H]2[C@H](NC(=O)Cc3ccccc3)C(=O)N2[C@H]1C(=O)O [PENICILLIN G] | – | – | – | – | – | 9 | – | –
10 | Cc1ccc(-c2c(C#N)c(N)nc3c2CCCC3)s1 | 25 (≈ 92.8 µM) | 12.5 (≈ 46.4 µM) | – | – | 20 | 12 | – | –
11 | Cc1ccsc1-c1c(C#N)c(N)nc2c1CCC2 | 37.5 (≈ 147 µM) | – | 37.5 (≈ 147 µM) | 13 | – | 11 | – | –
12 | Cc1ccc(-c2c(C#N)c(N)nc3c2CCCCC3)s1 | 25 (≈ 88.2 µM) | 25 (≈ 88.2 µM) | 37.5 (≈ 132 µM) | 10 | 19 | 20 | – | –
13 | CC(=O)N1CCN(c2ccc(OCC3COC(Cn4ccnc4)(c4ccc(Cl)cc4Cl)O3)cc2)CC1 (stereo not drawn) [KETOCONAZOLE] | – | – | – | – | – | – | 16 | –
14 | CC1(C)S[C@@H]2[C@H](NC(=O)[C@H](N)c3ccccc3)C(=O)N2[C@H]1C(=O)O [AMPICILLIN] | 8 (≈ 22.9 µM) | – | – | 15 | – | 31 | – | 10
